In series [1] the test system is HDACs (HeLa cell nuclear extracts). Kind of series: HDAC enzymatic activity, Biomol Color de Lys system. In kind it is biochemical. Put shortly: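 IC50 from sigmoidal dose-response fits of fluorescence (Ex 350–380, Em 440–460 nm). Compounds in DMSO dilution series incubated 1 h at 25 °C with HeLa nuclear extract HDACs and colorimetric substrate, pH 8.0 Tris/Cl buffer with NaCl, KCl, MgCl2, before developer termination.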

The next series has as its system HCT-118 cells. Briefly: Cell proliferation assay Method A (ATPlite), HCT-118. Format: cell-based. The following applies: 72 hours, read-out: antiproliferative activity IC50, HCT-118. In outline:
(§1)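 Cells seeded at 5,000–10,000 per well with graded compound concentrations and cultured 72 h in 0.5% fetal bovine serum. Growth inhibition read as cellular ATP content by firefly luciferase luminescence (ATPlite).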

For a further series, the system named is BT-474 cells. Briefly: Cell proliferation assay Method A (ATPlite), BT-474. Format: cell-based. The note with it: Homo sapiens, 72 hours, read-out: antiproliferative activity IC50, BT-474. Put shortly: as §1
Series [2] relates to Sk-Mel-28 cells. Briefly: Cell proliferation assay Method A (ATPlite), Sk-Mel-28. In kind it is cell-based. The following applies: Homo sapiens, 72 hours, read-out: antiproliferative activity IC50, Sk-Mel-28. In outline:
as §1

The test system of series [3] is H1993 cells. Kind of series: Cell proliferation assay Method A (ATPlite), H1993. The note with it: Homo sapiens, NCI-H1993, 72 hours, read-out: antiproliferative activity IC50, H1993. Format: cell-based. In outline: as §1
The subject of another series is H1975 cells. Briefly: Cell proliferation assay Method B, H1975. The note with it: Homo sapiens, NCI-H1975; NSCLC; H1975; 72 hours, 0.5% fetal bovine serum, CellTiter-Glo; read-out: antiproliferative activity IC50, H1975. In kind it is cell-based. The method, then: (§2) Cancer cell lines were plated at 5,000 to 10,000 per well in 96-well flat bottomed plates with various concentration of compounds. The cells were incubated with compounds for 72 hours in the presence of 0.5% of fetal bovine serum. Growth inhibition was accessed by adenosine triphosphate (ATP) content assay using Promega CellTiter-Glo kit. Promega CellTiter-Glo kit is an ATP monitoring system based on firefly luciferase. Briefly, 16 μl of mammalian cell lysis and substrate solution was added to 84 μl of culture medium per well to lyse the cells and stabilize the ATP. The mixture was shaken and incubated for 30 minutes and subsequently the luminescence was measured.

Series [4] has as its system H1993 cells. Kind of series: Cell proliferation assay Method B, H1993. Format: cell-based. The following applies: Homo sapiens, NCI-H1993; NSCLC; H1993; 72 hours, 0.5% fetal bovine serum, CellTiter-Glo; read-out: antiproliferative activity IC50, H1993. The procedure:
as §2

The next series concerns MDA-MB-231 cells. Kind of series: Cell proliferation assay Method B, MDA-MB-231. Format: cell-based. The note with it: Homo sapiens, 72 hours, 0.5% fetal bovine serum, CellTiter-Glo, read-out: antiproliferative activity IC50, MDA-MB-231. The method, then: as §2
Another series deals with BT474 cells. Kind of series: Cell proliferation assay Method B, BT474. Format: cell-based. The note with it: Homo sapiens, BT-474, 72 hours, read-out: antiproliferative activity IC50, BT474. The procedure: as §2
The subject of the next series is MDA-MB-468 cells. Briefly: Cell proliferation assay Method B, MDA-MB-468. Format: cell-based. The following applies: Homo sapiens, 72 hours, 0.5% fetal bovine serum, CellTiter-Glo, read-out: antiproliferative activity IC50, MDA-MB-468. The procedure: as §2
The next series relates to HCC1937 cells. Briefly: Cell proliferation assay Method B, HCC1937. The following applies: Homo sapiens, 72 hours, 0.5% fetal bovine serum, CellTiter-Glo, read-out: antiproliferative activity IC50, HCC1937. Format: cell-based. The method, then: as §2
For the next series, the system named is MDA-MB-436 cells. Kind of series: Cell proliferation assay Method B, MDA-MB-436. Format: cell-based. The note with it: Homo sapiens, 72 hours, 0.5% fetal bovine serum, CellTiter-Glo, read-out: antiproliferative activity IC50, MDA-MB-436. The procedure: as §2
A further series has as its system U87MG cells. Briefly: Cell proliferation assay Method B, U87MG. Format: cell-based. The note with it: Homo sapiens, U-87 MG; Glioblastoma; U87MG; 72 hours, 0.5% fetal bovine serum, CellTiter-Glo; read-out: antiproliferative activity IC50, U87MG. The procedure:
as §2

Another series deals with Ca127 cells. Kind of series: Cell proliferation assay Method B, Ca127. In kind it is cell-based. The note with it: HNC; Ca127; 72 hours, 0.5% fetal bovine serum, CellTiter-Glo; read-out: antiproliferative activity IC50, Ca127. The procedure:
as §2

For series [5], the system named is Sk-Mel-28 cells. Kind of series: Cell proliferation assay Method B, Sk-Mel-28. In kind it is cell-based. The following applies: Homo sapiens; Melanoma; Sk-Mel-28; 72 hours, 0.5% fetal bovine serum, CellTiter-Glo; read-out: antiproliferative activity IC50, Sk-Mel-28. The method, then: as §2
A further series deals with A375 cells. Briefly: Cell proliferation assay Method B, A375. The note with it: Homo sapiens, A-375; Melanoma; A375; 72 hours, 0.5% fetal bovine serum, CellTiter-Glo; read-out: antiproliferative activity IC50, A375. In kind it is cell-based. The procedure: as §2
Another series deals with HCC1500 cells. Briefly: Cell proliferation assay Method B, HCC1500. Format: cell-based. The note with it: Breast, 72 hours, read-out: antiproliferative activity IC50, HCC1500. The procedure: as §2
The next series has as its system HCC1806 cells. Kind of series: Cell proliferation assay Method B, HCC1806. Format: cell-based. The note with it: Homo sapiens, Breast, 72 hours, read-out: antiproliferative activity IC50, HCC1806. The procedure:
as §2

The subject of a further series is SKBr3 cells. Kind of series: Cell proliferation assay Method B, SKBr3. Format: cell-based. The note with it: Homo sapiens, SK-BR-3, Breast, 72 hours, read-out: antiproliferative activity IC50, SKBr3. The procedure: as §2
For the next series, the system named is MDA-MB-361 cells. Briefly: Cell proliferation assay Method B, MDA-MB-361. In kind it is cell-based. The following applies: Homo sapiens, Breast, 72 hours, read-out: antiproliferative activity IC50, MDA-MB-361. The method, then: as §2
In a further series the test system is MCF-7 cells. Briefly: Cell proliferation assay Method B, MCF-7. Format: cell-based. The following applies: Homo sapiens, MCF7, Breast, 72 hours, read-out: antiproliferative activity IC50, MCF-7. The procedure: as §2
Another series deals with T47D cells. Briefly: Cell proliferation assay Method B, T47D. The note with it: Homo sapiens, Breast, 72 hours, read-out: antiproliferative activity IC50, T47D. In kind it is cell-based. The method, then:
as §2

In another series the test system is ZR-75-1 cells. Kind of series: Cell proliferation assay Method B, ZR-75-1. Format: cell-based. The following applies: Homo sapiens, Breast, 72 hours, read-out: antiproliferative activity IC50, ZR-75-1. The procedure:
as §2

Read-outs that look alike come from different tables or passages of the source.

The compound `CN(Cc1cc2nc(-c3ccc(N)nc3)nc(N3CCOCC3)c2s1)c1ncc(C(=O)NO)cn1` [Compound 110, 2-(((2-(6-Aminopyridin-3-yl)-4-morpholinothieno[3,2-d]pyrimidin-6-yl)methyl)(methyl)amino)-N-hydroxypyrimidine-5-carboxamide] gave a melting point of 175 to 181 °C. This compound returned an IC50 in series [1] of less than 100 nM. Besides, the IC50 in the series with HCT-118 cells is less than 100 nM. Besides, the IC50 in the series with BT-474 cells is less than 100 nM. For the same compound, the IC50 with Sk-Mel-28 cells [2] is less than 100 nM. Besides, in the series with H1993 cells [3], the IC50 is less than 100 nM. For the same compound, in the series with H1975 cells, the IC50 was in the range of 10 to 100 nM. Besides, the IC50 in the series on H1993 cells [4] fell in the range of 10 to 100 nM. In addition, the IC50 in the series on MDA-MB-231 cells is 10 to 100 nM. The IC50 in the series with BT474 cells (BT474, 0.5% fetal bovine serum, CellTiter-Glo) is less than 10 nM. The IC50 in the series on MDA-MB-468 cells is 10 to 100 nM. The IC50 in the series on HCC1937 cells lay within 10 to 100 nM. Further, the IC50 in the series on MDA-MB-436 cells fell in the range of 10 to 100 nM. In addition, in the series on U87MG cells, the IC50 was less than 10 nM. The IC50 with Ca127 cells fell in the range of 10 to 100 nM. Also, the IC50 in the series with Sk-Mel-28 cells [5] was 10 to 100 nM. Also, the IC50 in the series with A375 cells lay within 10 to 100 nM.
For the compound `COc1ncc(-c2nc(N3CCOCC3)c3sc(CN(C)c4ncc(C(=O)NO)cn4)cc3n2)cn1` [Compound 261, N-Hydroxy-2-(((2-(2-methoxypyrimidin-5-yl)-4-morpholinothieno[3,2-d]pyrimidin-6-yl)methyl)(methyl)amino)pyrimidine-5-carboxamide], the melting point fell in the range of 215 to 220 °C. Also, the IC50 in [1] is less than 100 nM. Also, the IC50 in the series with HCC1500 cells is less than 10 nM. In the series on HCC1806 cells, the IC50 was less than 10 nM. Besides, the IC50 in the series with SKBr3 cells lay in the range of 10 to 100 nM. For the same compound, the IC50 in the series with BT474 cells (Breast, Method B) is less than 10 nM. Besides, in the series on MDA-MB-361 cells, the IC50 was less than 10 nM. Further, in the series on MCF-7 cells, the IC50 is less than 10 nM. In addition, the IC50 with T47D cells was less than 10 nM. Further, the IC50 with ZR-75-1 cells was less than 10 nM.

The record behind these values is patent US8906909B2 (Curis, Inc., priority 2009, dated 2014).
